We go through 4 compounds from patent publication US7160875B2, “Malonamide derivatives” (priority 2003, dated 2007).

The target in the test is γ-secretase (Homo sapiens, UniProt P49768). Briefly: in vitro γ-secretase assay (HEK293 membrane fraction, recombinant APP substrate, Abeta ELISA). Conditions: γ-secretase inhibition; HEK293 membrane fraction solubilized in 0.25% CHAPSO, C-terminal 100 amino acids of human APP as substrate, Abeta detected by ELISA. The class given is biochemical. The text has this: The activity of test compounds can be evaluated in assays which measure the proteolytic cleavage of suitable substrates by γ-secretase activity. These can be cellular assays where e.g., a substrate of the γ-secretase is fused in its cytoplasmic domain to a transcription factor. Cells are transfected with this fusion gene and a reporter gene, e.g., firefly luciferase, which expression is enhanced by the transcription factor. Cleavage of the fused substrate by γ-secretase will lead to expression of the reporter gene which can be monitored in appropriate assays. The γ-secretase activity can also be determined in cell-free in vitro […] containing the γ-secretase complex is incubated with a suitable APP-derived substrate which is cleaved to the Abeta peptides. The amount of produced peptides can be determined with specific ELISA assays. Cell lines of neuronal origin secrete Abeta peptides which can be measured with the specific ELISA assay. Treatment with compounds which inhibit γ-secretase leads to a reduction of secreted Abeta thus providing a measure of inhibition. The in vitro assay of γ-secretase activity uses a HEK293 membrane fraction as a source of γ-secretase and a recombinant APP substrate. The latter consist of the C-terminal 100 amino acids of human APP fused to a 6× Histidin tail for purification which is expressed in E. coli in a regulatable expression vector, e.g. pEt15. This recombinant protein corresponds to the truncated APP fragment which results after […] of the extracellular domain and which constitutes the γ-secretase substrate. The assay principle is described in Li Y M et al, PNAS 97(11), 6138-6143 (2000). Hek293 cells are mechanically disrupted, and the microsomal fraction is isolated by differential centrifugation. The membranes are solubilized in detergent (0.25% CHAPSO) and incubated with the APP substrate. The Abeta peptides which are produced by γ-secretase cleavage of the substrate are detected by specific ELISA assays as described (Brockhaus M et al, Neuroreport 9(7), 1481-1486 (1998).
(In general: An ELISA detects its analyte on a solid surface through an enzyme-linked reagent.)
Take `CC(C)(C(=O)NCC(F)(F)C(F)(F)F)C(=O)N[C@@H]1C(=O)Nc2ccccc2-c2ccccc21` [Example 67, 2,2-Dimethyl-N-((S)-6-oxo-6,7-dihydro-5H-dibenzo[b,d]azepin-7-yl)-N′-(2,2,3,3,3-pentafluoro-propyl)-malonamide]: the IC50 – broadly, the concentration needed to halve the response being measured – was 4 nM.
To “5-Methyl-4-oxo-(3S)-[(2RS)-(2,2,3,3,3-pentafluoro-propylcarbamoyl)-propionylamino]-2,3,4,5-tetrahydro-benzo[b][1,4]diazepine-1-carboxylic acid cyclopropylmethyl estermalonamide [Example 106]” belongs 90 nM; to `CC(C(=O)NCC(F)(F)C(F)(F)F)C(=O)N[C@H]1CN(S(=O)(=O)C(F)(F)F)c2ccccc2N(C)C1=O` (mixture of isomers) [Example 95, (2RS)-Methyl-N-((3S)-1-methyl-2-oxo-5-trifluorromethanesulfonyl-2,3,4,5-tetrahydro-1H-benzo[b][1,4]diazepin-3-yl)-N′-(2,2,3,3,3-pentafluoro-propyl)-malonamide], 71 nM.
Turning to `CC(C(=O)NCC(F)(F)C(F)(F)F)C(=O)N[C@H]1CN(C(=O)OCC2CC2)c2ccccc2N(CC(F)(F)F)C1=O` (mixture of isomers) [Example 109, 4-Oxo-(3S)-[(2RS)-(2,2,3,3,3-pentafluoro-propylcarbamoyl)-propionylamino]-5-(2,2,2-trifluoro-ethyl)-2,3,4,5-tetrahydro-benzo[b][1,4]diazepine-1-carboxylic Acid Cyclopropylmethyl Ester], the IC50 worked out at 48 nM.
